Source: patent publication US10774064B2 (Cadent Therapeutics, Inc., priority 2016, dated 2020)

Molecular target: T1, small-conductance Ca2+-activated K+ channels (SK channels, subtype 2) (Homo sapiens, UniProt Q9H2S1)
T1 construct: expressed in transfected cells; host or cells: HEK293
Assay: whole-cell patch-clamp of ionic current through SK2 channels in HEK293 cells (SC100)
Type: cell-based
Settings: whole-cell patch-clamp, HEK293 cells expressing SK2 channels; concentration that increases the basal current by 100%
Summary of the method: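 SC100, the concentration doubling basal current (a 100% increase), was taken from SK2 currents recorded by whole-cell patch-clamp in SK2-expressing HEK293 cells.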

Row | SMILES | SC100 (μM)
1 | OC(c1cc(NC2CCC(F)(F)CC2)nc(-n2cc(F)cn2)c1)c1ncco1 (stereo not shown) [NSSy6435] | + (+ means >1 uM)
2 | CC(=O)N1CCC(O)(c2cc(NC3CCC(F)(F)CC3)nc(-c3nc(C)cs3)c2)CC1 [NSSy6436, 1-(4-(2-((4,4-difluorocyclohexyl)amino)-6-(4-methylthiazol-2-yl)pyridin-4-yl)-4-hydroxypiperidin-1-yl)ethan-1-one] | +++ (+++ means <200 nM)
3 | Cc1ccn(-c2nc(N[C@@H]3C[C@H]4CC[C@@H]3O4)cc(N3CCOCC3)n2)n1 [NSSy6445] | + (+ means >1 uM)
4 | Cc1ccn(-c2nc(N[C@H]3C[C@@H]4CC[C@H]3O4)cc(N3CCOCC3)n2)n1 [NSSy6446] | + (+ means >1 uM)
5 | Cc1ccn(-c2cc(COc3ccc(C(N)=O)nn3)cc(NC3CCC(F)(F)CC3)n2)n1 [NSSy6451] | +++ (+++ means <200 nM)
6 | CC1(O)CC(Oc2cc(-n3ccc(F)n3)nc(NC3CCC(F)(F)CC3)n2)C1 (stereo not shown) [NSSy6464, 3-((2-((4,4-difluorocyclohexyl)amino)-6-(3-fluoro-1H-pyrazol-1-yl)pyrimidin-4-yl)oxy)-1-methylcyclobutan-1-ol] | + (+ means >1 uM)
7 | Fc1ccn(-c2cc(N3CC4(COC4)C3)nc(NC3CCC(F)(F)CC3)n2)n1 [NSSy6467] | + (+ means >1 uM)
8 | Fc1ccn(-c2cc(N3CCOCC3)nc(NC3CCC(F)(F)CC3)n2)n1 [NSSy6468] | + (+ means >1 uM)
9 | Cc1ccn(-c2cc(C(O)Cc3ccc(C#N)cn3)cc(NC3CCC(F)(F)CC3)n2)n1 (stereo not shown) [NSSy6469, 6-(2-(2-((4,4-difluorocyclohexyl)amino)-6-(3-methyl-1H-pyrazol-1-yl)pyridin-4-yl)-2-hydroxyethyl)nicotinonitrile] | +++ (+++ means <200 nM)
10 | Cc1ccn(-c2cc(N3CCOCC3)cc(C(=O)c3ccc(F)cc3)n2)n1 [NSSy6470, (4-fluorophenyl) (6-(3-methyl-1H-pyrazol-1-yl)-4-morpholinopyridin-2-yl) methanone] | + (+ means >1 uM)
11 | Cc1cc(C)n(-c2cc(N3CC4(COC4)C3)nc(NC3CCC(F)CC3)n2)n1 (stereo not shown) [NSSy6471, 4-(3,5-dimethyl-1H-pyrazol-1-yl)-N-(4-fluorocyclohexyl)-6-(2-oxa-6-azaspiro[3.3]heptan-6-yl)pyrimidin-2-amine] | + (+ means >1 uM)
12 | Cc1ccn(-c2cc(N3CCOCC3)cc(C(O)c3ccc(F)cc3)n2)n1 (stereo not shown) [NSSy6472, (4-fluorophenyl) (6-(3-methyl-1H-pyrazol-1-yl)-4-morpholinopyridin-2-yl) methanol] | + (+ means >1 uM)
13 | Cc1nn(-c2cc(C(O)c3ncco3)cc(NC3CCC(F)(F)CC3)n2)c(C)c1F (stereo not shown) [NSSy6473] | ++ (++ means 200 nM-1000 nM)
14 | Cc1ccn(-c2nc(NC3CCC(O)CC3)cc(N3CCOCC3)n2)n1 (stereo not shown) [NSSy6486] | + (+ means >1 uM)
15 | Cc1ccn(-c2cc(S(=O)(=O)N3CCC(F)(F)CC3)cc(N3CCOCC3)n2)n1 [NSSy6489, 4-(4-((4,4-difluoropiperidin-1-yl)sulfonyl)-6-(3-methyl-1H-pyrazol-1-yl)pyridin-2-yl)morpholine] | + (+ means >1 uM)
16 | Cc1ccn(-c2cc(N3CCOCC3)nc(NC3CCC(F)(F)CC3)n2)n1 [NSSy6499] | + (+ means >1 uM)
17 | Cc1ccn(-c2nc(NC34CC5CC(CC(O)(C5)C3)C4)cc(N3CCOCC3)n2)n1 [NSSy6511] | + (+ means >1 uM)
18 | Cc1ccn(-c2cc(N3CCOCC3)cc([C@@H](O)c3ccc(F)cc3)n2)n1 [NSSy6513, (S)-(4-fluorophenyl)(6-(3-methyl-1H-pyrazol-1-yl)-4-morpholinopyridin-2-yl)methanol] | + (+ means >1 uM)
19 | Cc1ccn(-c2cc(N3CCOCC3)cc([C@H](O)c3ccc(F)cc3)n2)n1 [NSSy6514, (R)-(4-fluorophenyl)(6-(3-methyl-1H-pyrazol-1-yl)-4-morpholinopyridin-2-yl)methanol] | + (+ means >1 uM)
20 | COc1cc(-n2nc(C)cc2C)nc(NC2CCC(F)(F)CC2)n1 [NSSy6519, N-(4,4-difluorocyclohexyl)-4-(3,5-dimethyl-1H-pyrazol-1-yl)-6-methoxy pyrimidin-2-amine] | ++ (++ means 200 nM-1000 nM)

Row | SMILES | SC100 (μM)
21 | Cc1ccn(-c2cc(N3CC4(COC4)C3)nc(NC3CCC(F)(F)CC3)n2)n1 [NSSy6522] | ++ (++ means 200 nM-1000 nM)
22 | Cc1ccnn1-c1cc(N2CC3(COC3)C2)nc(NC2CCC(F)(F)CC2)n1 [NSSy6523] | + (+ means >1 uM)
23 | Cc1ccnn1-c1cc(N2CCOCC2)nc(NC2CCC(F)(F)CC2)n1 [NSSy6525] | + (+ means >1 uM)
24 | Cc1ccn(-c2nc(NC3CCC(C#N)CC3)cc(N3CCOCC3)n2)n1 (stereo not shown) [NSSy6526] | + (+ means >1 uM)
25 | COC1CCC(Nc2cc(N3CCOCC3)nc(-n3ccc(C)n3)n2)CC1 (stereo not shown) [NSSy6529, N-(4-methoxycyclohexyl)-2-(3-methyl-1H-pyrazol-1-yl)-6-morpholinopyrimidin-4-amine] | + (+ means >1 uM)
26 | Cc1ccn(-c2nc(N[C@H]3CC[C@H](C(N)=O)CC3)cc(N3CCOCC3)n2)n1 [NSSy6539] | + (+ means >1 uM)
27 | Cc1ccn(-c2nc(NC3CCC(N(C)C)CC3)cc(N3CCOCC3)n2)n1 (stereo not shown) [NSSy6540] | + (+ means >1 uM)
28 | Cc1ccn(-c2nc(NC3CCC(C(N)=O)CC3)cc(N3CCOCC3)n2)n1 (stereo not shown) [NSSy6541] | + (+ means >1 uM)
29 | Cc1ccn(-c2nc(NC3CCC(N)CC3)cc(N3CCOCC3)n2)n1 (stereo not shown) [NSSy6550] | + (+ means >1 uM)
30 | Cc1csc(-c2cc(N3CC4(COC4)C3)nc(NC3CCC(F)(F)CC3)n2)n1 [NSSy6558, N-(4,4-difluorocyclohexyl)-4-(4-methylthiazol-2-yl)-6-(2-oxa-6-azaspiro [3.3]heptan-6-yl)pyrimidin-2-amine] | ++ (++ means 200 nM-1000 nM)
31 | Cc1csc(-c2cc(C(O)c3ncco3)cc(NC3CCC(F)(F)CC3)n2)n1 (stereo not shown) [NSSy6563] | ++ (++ means 200 nM-1000 nM)
32 | Cc1ccn(-c2cc(N3CCOCC3)cc(NC3CCC(F)(F)CC3)n2)n1 [NSSy6573] | ++ (++ means 200 nM-1000 nM)
33 | COc1cc(-n2ccc(C)n2)nc(NC2CCC(F)(F)CC2)n1 [NSSy6574] | + (+ means >1 uM)
34 | Cc1ccn(-c2cc(C(O)c3nnc(C)o3)cc(NC3CCC(F)(F)CC3)n2)n1 (stereo not shown) [NSSy6576] | ++ (++ means 200 nM-1000 nM)
35 | Cc1ccn(-c2cc(N3CC4(CCC4)C3)nc(NC3CCC(F)(F)CC3)n2)n1 [NSSy6580] | + (+ means >1 uM)
36 | Cc1ccn(-c2cc(N3CCC4(CCOCC4)C3)nc(NC3CCC(F)(F)CC3)n2)n1 [NSSy6581] | + (+ means >1 uM)
37 | Cc1ccn(-c2cc(N3CC4CCCC4C3)nc(NC3CCC(F)(F)CC3)n2)n1 (stereo not shown) [NSSy6584] | + (+ means >1 uM)
38 | Cc1ccn(-c2cc(N3CC4COCC4C3)nc(NC3CCC(F)(F)CC3)n2)n1 (stereo not shown) [NSSy6585] | + (+ means >1 uM)
39 | Cc1cc(-c2nc(C)cs2)nc(NC2CCC(F)(F)CC2)n1 [NSSy6590] | ++ (++ means 200 nM-1000 nM)
40 | Cc1cc(-n2ccc(C(F)(F)F)n2)nc(NC2CCC(F)(F)CC2)n1 [NSSy6591] | + (+ means >1 uM)

Row | SMILES | SC100 (μM)
41 | Cc1cc(-n2nc(C)cc2C)nc(NC2CCC(F)(F)CC2)n1 [NSSy6593] | ++ (++ means 200 nM-1000 nM)
42 | CC(=O)N1CCN(c2cc(-c3nc(C)cs3)nc(NC3CCC(F)(F)CC3)n2)CC1 [NSSy6598, 1-(4-(2-((4,4-difluorocyclohexyl)amino)-6-(4-methylthiazol-2-yl)pyrimidin-4-yl)piperazin-1-yl)ethan-1-one] | ++ (++ means 200 nM-1000 nM)
43 | CC(=O)N1CCN(c2cc(-n3ccc(C(F)(F)F)n3)nc(NC3CCC(F)(F)CC3)n2)CC1 [NSSy6607] | ++ (++ means 200 nM-1000 nM)
44 | COC(C)c1cc(-n2nc(C)cc2C)nc(NC2CCC(F)(F)CC2)n1 (stereo not shown) [NSSy6612] | + (+ means >1 uM)
45 | COC(C)c1cc(-n2ccc(C(F)(F)F)n2)nc(NC2CCC(F)(F)CC2)n1 (stereo not shown) [NSSy6613] | + (+ means >1 uM)
46 | CC(O)c1cc(-n2ccc(C(F)(F)F)n2)nc(NC2CCC(F)(F)CC2)n1 (stereo not shown) [NSSy6614] | + (+ means >1 uM)
47 | CCOc1cc(-n2ccc(C)n2)nc(NC2CCC(F)(F)CC2)n1 [NSSy6625] | + (+ means >1 uM)
48 | CC(=O)N1CCN(c2cc(-n3ccc(C)n3)nc(NC3CCC(F)(F)CC3)n2)CC1 [NSSy6629, 1-(4-(2-((4,4-difluorocyclohexyl)amino)-6-(3-methyl-1H-pyrazol-1-yl)pyrimidin-4-yl)piperazin-1-yl)ethan-1-one] | ++ (++ means 200 nM-1000 nM)
49 | Cc1cc(C)n(-c2cc(N3C[C@H]4C[C@@H]3CO4)nc(NC3CCC(F)(F)CC3)n2)n1 [NSSy6638] | ++ (++ means 200 nM-1000 nM)
50 | Cc1cc(C)n(-c2cc(N3C[C@@H]4C[C@H]3CO4)nc(NC3CCC(F)(F)CC3)n2)n1 [NSSy6639] | + (+ means >1 uM)
51 | Cc1cc(C)n(-c2cc(N3CC4CCC(C3)O4)nc(NC3CCC(F)(F)CC3)n2)n1 [NSSy6644] | + (+ means >1 uM)
52 | Cc1ccn(-c2cc(C(C)O)nc(NC3CCC(F)(F)CC3)n2)n1 (stereo not shown) [NSSy6650] | + (+ means >1 uM)
53 | COC(C)c1cc(-n2ccc(C)n2)nc(NC2CCC(F)(F)CC2)n1 (stereo not shown) [NSSy6651] | + (+ means >1 uM)
54 | Cc1cc(C)n(-c2cc(-n3nc(C)cc3C)nc(NC3CCC(F)(F)CC3)n2)n1 [NSSy6654] | + (+ means >1 uM)
55 | COCc1cc(-n2ccc(C(F)(F)F)n2)nc(NC2CCC(F)(F)CC2)n1 [NSSy6674, N-(4,4-difluorocyclohexyl)-4-(methoxymethyl)-6-(3-(trifluoromethyl)-1H-pyrazol-1-yl)pyrimidin-2-amine] | + (+ means >1 uM)
56 | COCCOc1cc(-n2ccc(C)n2)nc(NC2CCC(F)(F)CC2)n1 [NSSy6675] | + (+ means >1 uM)
57 | Cc1ccn(-c2cc(N(C)C)nc(NC3CCC(F)(F)CC3)n2)n1 [NSSy6677] | + (+ means >1 uM)
58 | Cc1ccn(-c2cc(N3CCNCC3)nc(NC3CCC(F)(F)CC3)n2)n1 [NSSy6679] | ++ (++ means 200 nM-1000 nM)
